According to PubChem BioAssay (NCI):
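Cultured in 96-well plates, cells were exposed to test compound for 48 hours across five concentrations. GI50 = concentration required for 50% inhibition of growth. TGI denotes the concentration required for complete inhibition of growth.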

Tests used:
Experiment in all cases: inhibition of tumour cell growth, NCI panel, 48 h
[1] = test system: HOP-62 NSCLC
[2] = test system: NCI-H226 lung
[3] = test system: NCI-H522 lung
[4] = test system: OVCAR-5 ovarian
[5] = test system: SF-268 CNS
[6] = test system: SW-620 colon
[7] = test system: U251 CNS
[8] = test system: UO-31 renal
[9] = test system: HOP-92 NSCLC
[10] = test system: BT-549 breast

Row | SMILES | TGI [1] [µM] | TGI [2] [µM] | TGI [3] [µM] | TGI [4] [µM] | TGI [5] [µM] | TGI [6] [µM] | TGI [7] [µM] | TGI [8] [µM] | TGI [9] [µM] | GI50 [10] [µM] | TGI [10] [µM] | GI50 [1] [µM] | GI50 [9] [µM] | GI50 [3] [µM] | GI50 [4] [µM] | GI50 [5] [µM] | GI50 [6] [µM] | GI50 [7] [µM] | GI50 [8] [µM] | GI50 [2] [µM]
1 | Cc1c(C)c2cc3c(=O)c(CCl)coc3c(C)c2oc1=O | > 100 | > 100 | > 100 | > 100 | > 100 | > 100 | > 100 | > 100 |  |  |  |  |  |  |  |  |  |  |  | 
2 | Cn1cc(-c2ccc3c4ccccc4n(C)c3c2)c2ccccc21 | > 100 | > 100 | > 100 | > 100 | > 100 | > 100 | > 100 | > 100 |  |  |  |  |  |  |  |  |  |  |  | 
3 | C=CC[P@]1(=O)O[C@H](c2ccccc2)C(C)N1C(C)C (stereo not given in full) | > 100 | > 100 | > 100 | > 100 | > 100 | > 100 | > 100 | > 100 | > 100 |  |  |  |  |  |  |  |  |  |  | 
4 | Cc1nc(-n2nc(-c3ccccc3)cc2-c2ccccc2)sc1C(=O)CC(=O)C(=O)Nc1ccc(Cl)c(Cl)c1 | > 100 | > 100 | > 100 | > 100 | > 100 | > 100 | > 100 | > 100 |  |  |  |  |  |  |  |  |  |  |  | 
5 | COc1ccc2c(c1OC)C(=O)C2 | > 100 | > 100 | > 100 |  | > 100 | > 100 | > 100 | > 100 |  |  |  |  |  |  |  |  |  |  |  | 
6 | CN(C)Cc1ccc(NC(=O)c2cncc(C#Cc3cnc(N)c4ncccc34)c2)cc1C(F)(F)F | 3.48 |  | 4.07 | 2.6 | 3.2 | 2.98 | 3.13 | 2.8 | 4.66 | 2.21 | 4.36 | 1.57 | 1.04 | 1.93 | 1.27 | 1.66 | 1.5 | 1.63 | 1.43 | 
7 | N.N.N.N.N#N.N#N.[Cl-].[Os+6] |  | > 100 | > 100 | > 100 | > 100 | > 100 | > 100 | > 100 |  |  |  |  |  | > 100 | > 100 | > 100 | > 100 | > 100 | > 100 | > 100
8 | CC(=O)OC1(Sc2ccccc2)CC2[C@H]3COC(C)(C)O[C@H]3CC[C@@]2(C)CC1=O (stereo not given in full) |  | > 100 | 79.8 | > 100 |  | > 100 |  | > 100 | 86.1 |  |  |  |  |  |  |  |  |  |  | 
9 | C=CCCC(O)c1cc(C)c(O)c(C)c1 (stereo not given) | > 100 | > 100 | > 100 | > 100 | > 100 | > 100 | > 100 | > 100 |  |  |  |  |  |  |  |  |  |  |  | 
10 | COc1ccc(-n2cc(-c3cc(OC)c(OC)c(OC)c3)nc2SCc2cccc(C#N)c2)cc1OC | > 100 | > 100 | > 100 | > 100 | > 100 | > 100 | > 100 | > 100 | 78.9 |  |  | > 100 | 27.8 | 90 | > 100 | 95.8 | 34 | > 100 | > 100 | > 100
11 | COc1ccc(-c2nc(NC(=O)CS(=O)(=O)c3ccc(F)cc3)sc2C)cc1 | 87.1 | 87.8 |  | > 100 | > 100 | > 100 | 51.3 | 92 | 48 | 15.8 | 40.3 | 22.4 | 14.2 |  | 36 | 28.7 | 13.7 | 19.2 | 18.9 | 23.8
12 | CC1=CC(=O)NP(=O)(Oc2ccc(Cl)cc2)N1 (stereo not given) | > 100 | > 100 | > 100 | > 100 | > 100 | > 100 | > 100 | > 100 | > 100 |  |  |  |  |  |  |  |  |  |  | 
13 | COc1ccc2c(=O)c(-c3cc(OC)c(OC)cc3OC)coc2c1 | > 100 | > 100 | 5.44 | > 100 | > 100 | > 100 | > 38.6 | > 100 |  |  | > 100 |  |  |  |  |  |  |  |  | 
14 | COC(=O)c1csc(-c2csc(CCNC(=O)OC(C)(C)C)n2)n1 | > 100 | > 100 |  | > 100 | > 100 | > 100 | > 100 | > 100 | > 100 |  | > 100 |  |  |  |  |  |  |  |  | 
15 | O=C1/C(=C/c2ccc(F)cc2)COc2ccc(O)c(O)c21 | 17.8 | 7.08 | 1.24 | 8.99 | 9.27 | 11.3 | 4.19 | 2.27 |  | 2.96 | 8.73 | 3.43 |  | 0.304 | 3 | 2.51 | 2.03 | 1.46 | 1.05 | 2.47
16 | CN(C)CCNC(=O)c1ccc2c(c1)oc1cc3ccccc3c(=O)n12 | 30.8 |  |  |  | 31.7 | 31.7 | 30.6 | 30.8 | 38.4 | 25.9 | 45.8 | 16 | 9.78 |  |  | 15.4 | 15.5 | 15.8 | 15.1 | 
17 | S=C1SCC2CCCN12 (stereo not given) | > 100 |  | > 100 | > 100 | > 100 | > 100 | > 100 | > 100 | > 100 |  |  |  |  |  |  |  |  |  |  | 
18 | CC(=O)/C=C1\CC(=O)N(C)c2ccccc2N1 | > 100 | > 100 | > 100 | > 100 | > 100 | > 100 | > 100 | > 100 | > 100 |  |  |  |  |  |  |  |  |  |  | 
19 | O=C1NC(c2ccccc2)(c2ccccc2)C(=O)N1CCCCCCN1C(=O)NC(c2ccccc2)(c2ccccc2)C1=O | > 100 | > 100 | 84.2 | > 100 | > 100 | > 100 | > 100 | > 100 | 19.9 |  |  |  |  |  |  |  |  |  |  | 
20 | COC1CCCc2c(OC(C)=O)ccc(OC(C)=O)c21 (stereo not given) | > 100 | > 100 |  | > 100 | > 100 | > 100 | > 100 | > 100 | 34.1 |  |  |  |  |  |  |  |  |  |  | 
